Measured values taken from patent US11357971B2, “Ion pump with hyperbranched polymers” (OBOE IPR AB, priority 2016, dated 2022).

Key:
[1] = system: Arabidopsis thaliana seedlings (root apical meristem); experiment: Root growth rate of A. thaliana seedlings during OEIP delivery; format: in vivo; settings: for effect on root growth rate: OEIP delivery, 60 min, compared with non-targeted seedlings
Text: The dPG-based OEIPs were used for in vivo experiments on a highly accessible model plant system suitable for live-cell imaging in the intact organism. Specifically, the apical root meristem and early elongation zone of four-day-old Arabidoposis thaliana seedlings positioned on agar gel were targeted for delivery of IAA via the OEIP. Root tips were monitored using a horizontally oriented Nikon AZ100 spectral macro-confocal laser-scanning microscope system schematically illustrated in FIG. 3a. In this arrangement, seedlings were positioned and imaged vertically.
As a negative control, benzoic acid^15 was delivered by the OEIP device, operated in the same configuration.
(§1) To this end, seeds of both genotypes and wild-type Col-0 were surface sterilized with 70% ethanol for 1 min, incubated in pool cleaner (Biltema, Sweden; one tablet per 2000 ml H2O) for 12 min, and washed four times with sterile, distilled water (dH2O). After 3 days at 4° C. in the dark, seeds were plated and grown on ½ Murashige and Skoog (MS) (Duchefa Biochemie, Haarlem, The Netherlands), 0.5 g/L 2-(N-morpholino)ethanesulfonic acid (MES, Sigma-Aldrich), 1% sucrose, 0.7% plant agar (Duchefa) growth medium plates (120×120 mm square petri-dishes; Gosselin) at pH 5.6 in vertical orientation at 23° C. with 16 h of light per day. 12 h prior to the start of the experiments, 4 days post-germination (dpg) seedlings were positioned onto fresh plates of identical MS media composition additionally supplemented with 0.01 M KCl.
Immediately prior to the experiments, the OEIPs were operated in a target solution of 10^−5 M KCl(aq), and the OEIP device tip was kept from drying excessively during sample loading and OEIP positioning. A Keithley 2612b SourceMeter (Keithley Instruments Inc, Cleveland, Ohio, USA) and custom LabVIEW (National Instruments Corporation, Austin, Tex., USA) software was use to source current and record voltage. The OEIP device was turned on immediately prior to the first imaging sequence and operated at a constant electrical current of 1 μA. For these experiments, the OEIP delivery tip was submerged in the MS media in close proximity (100-200 μm) to the root epidermal tissue (FIG. 3b,c) and was held at a fixed position in the growth MS media for the duration of each trial.

[2] = system: DII-Venus auxin-response reporter; experiment: DII-Venus fluorescent auxin-response reporter seedlings, OEIP delivery; format: in vivo, Arabidopsis thaliana; settings: for effect on DII-Venus fluorescence intensity: OEIP delivery to root tip, signal falls in presence of auxin
Text: The DII-Venus reporter is characterized by absence or reduction in fluorescent signal intensity in the presence of auxin or increasing auxin levels, respectively. Conversely, in DR5, the presence or gain of fluorescent signal intensity indicates presence or increase of auxin concentrations, respectively. The relative auxin abundance is visualized faster by DII-Venus than by DR5^15, because the DII-Venus signal relies on a protein degradation mechanism rather than the slower transcriptional and translational production mechanisms of DR5.
Using DII-Venus seedlings, the fluorescent signal intensity was monitored and onset of strong fluorescence reduction was observed between 30 to 60 min (FIG. 5a,b).
as §1, with “12 h prior to the start of the experiments, 4 days post-germination (dpg) seedlings were positioned onto fresh plates of identical MS media composition additionally supplemented with 0.01 M KCl.” left out
A custom reoriented macro confocal laser-scanning microscope with a vertical stage was used to acquire images (Bergman-Labora, Sweden). The macro confocal consisted of a horizontally placed AZ100 macroscope (Nikon, Japan) adapted with a specially built XYZ motorized stage (Prior Scientific fitted by Bergman-Labora) and supplied with diascopic white light and episcopic fluorescence light (Nikon). […] Excitation was at 488 nm and emission detected with a 525/50 filter. DII Venus fluorescence intensities from a single layer were normalized to initial intensity, averaged and compared (Standard deviation of the mean). […]

[3] = system: DR5rev:GFP auxin-response reporter; experiment: DR5rev:GFP fluorescent auxin-response reporter seedlings, OEIP delivery to elongation zone; format: in vivo, Arabidopsis thaliana; settings: root elongation zone
Text: A custom reoriented macro confocal laser-scanning microscope with a vertical stage was used to acquire images (Bergman-Labora, Sweden). The macro confocal consisted of a horizontally placed AZ100 macroscope (Nikon, Japan) adapted with a specially built XYZ motorized stage (Prior Scientific fitted by Bergman-Labora) and supplied with diascopic white light and episcopic fluorescence light (Nikon). A climate enclosure with passive humidification was designed to surround the stage area to keep plants in a humid, dark environment. The AZ100 macroscope was connected to a C2+ confocal laser scanning system (Nikon) equipped with lasers for 405 nm, 457/488/514 nm and 561 nm excitation and a transmitted light detector. […] Excitation was at 488 nm and emission detected with a 525/50 filter. DII Venus fluorescence intensities from a single layer were normalized to initial intensity, averaged and compared (Standard deviation of the mean). […]

[4] = reported in literature (ref. 13); cited from earlier work

Compound	root growth rate after 60 min of delivery ([1]; OEIP delivery at 1 μA, average of 5 trials, after 60 min)	root growth rate before the decrease ([1]; OEIP delivery at 1 μA, average of 5 trials, initial rate)	effect on root growth rate [1]	onset of strong fluorescence reduction ([2]; DII-Venus seedlings, OEIP delivery)	effect on DII-Venus fluorescence intensity [2]	effect on DR5 reporter fluorescent intensity [3]	onset of fluorescence in plant tissues [3]	activity in previous bioassays [4]
O=C(O)Cc1c[nH]c2ccccc12 [IAA, indole-3-acetic acid]	2.4±0.7 μm min^−1	4.7±1.0 μm min^−1	rapid decrease in growth rate	30 to 60 min	strong and significant decrease in fluorescence	signal continued to increase between 2 and 3 hours	1 h	–
O=C(O)c1ccccc1 [benzoic acid]	–	–	maintained their growth rates	–	preserved their fluorescence	did not display alterations in fluorescent intensity	–	–
O=C(O)CC1C(=O)Nc2ccccc21 (centres unmarked) [oxIAA, 2-oxindole-3-acetic acid]	–	–	–	–	–	–	–	inactive
